Assay results taken from US20220168261A1, “COMPOUNDS AND METHODS FOR MANAGING CANCER THROUGH IMMUNE SYSTEM” (AKAMARA THERAPEUTICS, INC., priority 2019, published 2022).

What was measured:
4T1 tumors = experiment: 4T1 breast tumors in mice in vivo; design: species or system BALB/c mice
4T1 cells [1] = experiment: Interferon pathway / anti-viral response in 4T1 cells (RT-q-PCR, iBlot); assay type: cell-based
Description: RT-q-PCR was performed with RNA extracted from 4T1 cells treated with 30 μM of Compound 1 or vehicle for 24 h. […] The result is representative of n=3.
See, FIG. 16. The unmethylated mRNA generated due to inhibition of CMTR2 activity leads to recognition by sensors like MDA5 and TLR3 in conjunction with adapters like TRIF.

[2] = Pharmacokinetics after single i.v. bolus in tumor bearing mice; assay type: in vivo, female Balb/c mice; details: plasma, LC-MS/MS, noncompartmental analysis
Description: The pharmacokinetic (PK) profile of Compound 1 was evaluated following single intravenous (i.v bolus) dosing in tumor bearing female Balb/c mice. Tumor and plasma samples were collected at various time points, sparse sampling (n=3). Plasma concentrations were determined using LC-MS/MS and later subjected to Phoenix WinNonlin Noncompartmental analysis and PK parameters were estimated.

[3] = Single dose toxicity study in rats; assay type: in vivo; details: for ALP (Hepatic), Mean / ALT (Hepatic), Mean / AST (Hepatic), Mean / Creatinine (Renal), Mean / Hemoglobin (Anemia), Mean / Neutrophil (Neutropenia), Mean / Platelet (Thrombocytopenia), Mean: rat, in vivo
Description: Further, Compound 1 was also tested for safety end point evaluation in rats. […] Doses of 44 mg/kg, 88 mg/kg and 176 mg/kg were tested and 176 mg/kg was LTD.

4T1 cells [4] = experiment: CMTR2 levels in 4T1 cells upon treatment; assay type: cell-based
Excerpt: (§1) Cap-specific mRNA (nucleoside-2′-O-)-methyltransferase 2 (CMTR2) is an enzyme that methylates at the 2′-O position of the second transcribed nucleotide of mRNAs.
Alternatively, the unmethylated mRNA could also be recognized by toll-like receptors (TLR) like TLR3. Both of these would trigger many interferon regulatory factors (IRFs) leading to a type-I interferon antiviral response. The interferons can induce interferon stimulated genes (ISGs) such as interferon induced tetratricopeptide repeat protein 1 (IFIT1), which binds to unmethylated mRNA with high affinity. Furthermore, the immune system would be activated by the interferons. Additionally, the unmethylated mRNA could be secreted out from the tumor cells resulting in B-cell activation.

4T1 cells [5] = experiment: Intracellular distribution of platinum and intact drug in 4T1 cells (AAS, RPHPLC); assay type: cell-based; details: 50 μM
Description: The remaining insoluble proteins were resuspended in RIPA lysis buffer. The leftover genomic DNA (gDNA) pellet was treated with methanol to dissociate any non-covalently bound platinum from the gDNA. All the fractions were assayed by atomic absorption spectroscopy (AAS) to determine their Pt content. […] Data was generated from three independent biological experiments and error represents standard error of mean.

CMTR2 [6] = target: T1, CMTR2 (Mus musculus, UniProt Q8BWQ4); experiment: Binding of CMTR2 to Compound 1 by ELISA
T1 construct: endogenous in cells; host or cells: 4T1 cells (lysate)
T1 sequence (Q8BWQ4 1-767): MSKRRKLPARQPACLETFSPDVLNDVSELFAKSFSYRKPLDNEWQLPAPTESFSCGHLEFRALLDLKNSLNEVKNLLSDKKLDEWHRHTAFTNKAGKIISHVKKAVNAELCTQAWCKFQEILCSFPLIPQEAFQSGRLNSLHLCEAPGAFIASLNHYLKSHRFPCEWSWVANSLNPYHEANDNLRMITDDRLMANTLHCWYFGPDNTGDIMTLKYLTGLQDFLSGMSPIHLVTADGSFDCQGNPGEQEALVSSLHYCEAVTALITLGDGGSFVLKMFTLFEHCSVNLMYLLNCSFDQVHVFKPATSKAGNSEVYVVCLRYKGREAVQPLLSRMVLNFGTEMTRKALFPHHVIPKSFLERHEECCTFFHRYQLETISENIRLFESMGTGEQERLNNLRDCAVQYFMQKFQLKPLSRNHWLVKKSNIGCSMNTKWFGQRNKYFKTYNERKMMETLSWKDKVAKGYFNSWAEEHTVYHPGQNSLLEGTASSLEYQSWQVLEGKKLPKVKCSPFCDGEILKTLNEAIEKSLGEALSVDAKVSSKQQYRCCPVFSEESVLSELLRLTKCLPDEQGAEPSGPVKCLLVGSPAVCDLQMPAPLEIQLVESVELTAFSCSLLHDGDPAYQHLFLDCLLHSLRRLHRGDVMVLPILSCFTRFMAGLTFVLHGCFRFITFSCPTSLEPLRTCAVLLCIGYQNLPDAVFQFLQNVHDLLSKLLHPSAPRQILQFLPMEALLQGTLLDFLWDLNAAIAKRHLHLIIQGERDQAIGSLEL
Excerpt: as §1

CMTR2 [7] = target: T1, CMTR2; experiment: Proteomics target identification (anti-cholesterol IP and chemical pulldown) from 4T1 lysate; assay type: binding
Description: as §1
In this example, two different proteomics approach were used to identify the target of Compound 1: (i) an anti-drug antibody (binds to cholesterol in Compound 1) and (ii) Compound A-1, where both (i) and (ii) were used to precipitate targets from 4T1 lysates. The 4T1 cell lysate was treated with pegylated Compound 1 for 20 hours. The 4T1 cells lysate was, independently, combined with the proteins of Table A or treated with Compound 1 and then combined with the proteins of Table A. Precipitated proteins were digested into peptides and identified using LC-MS/MS. Table A provides a summary of the proteins identified from both approaches that were enriched in Compound 1 samples above the background.

Lewis lung carcinoma = experiment: Immunocompetent Lewis lung carcinoma model; assay type: in vivo, mice
Excerpt: This model was therefore used to test whether the activation of both T cells, using a PD1 inhibitor, and B cells, using Compound 1, results in synergy. In this experiment, four groups of mice models for immunocompetent Lewis lung carcinoma were utilized. The mice were, independently, intravenously treated with control, Compound 1, anti-PD-1, or Compound 1+ anti-PD-1 and tumor growth monitored for at least 28 days post-tumor induction. The following table describes the treatments utilized in the experiment.

[8] = tumors regressed by 20% on day three

## CC(C)CCC[C@@H](C)[C@H]1CCC2C3CC=C4C[C@@H](OCCN(CC(=O)[O-])CC(=O)[O][Pt+]5[NH][C@@H]6CCCC[C@H]6[NH]5)CC[C@]4(C)C3CC[C@@]21C (stereo partly drawn) [Compound 1]
4T1 tumors; 88 mg/kg, 2 cycles, T and B-cell knockout (SCID) mice, FIG. 26
  4T1 tumor ablation in mice lacking B cells: 4T1 tumor ablation does not happen in mice lacking B cells
4T1 tumors; 88 mg/kg, 2 cycles, animals with previous tumor regression, FIG. 27
  Tumor growth following re-implantation of cancer cells: No tumor growth occurs
4T1 tumors; 4T1 breast cancer-bearing mice, FIG. 10
  Tumor growth inhibition with increasing doses: clear dose-dependent effect
4T1 tumors; 50% regressed tumors
  Infiltrating immune cells in tumor sections (immunohistology): increased IGKC levels, and increased infiltration of memory B cells (CD20+) and plasma B cells (CD138)
4T1 tumors; FIGS. 8B to 8E
  B cell biomarker transcripts IGKC and CD21 in tumor (RTPCR): increase in IGKC and CD21
  CD8a in tumor (RTPCR): increase in CD8a cells
4T1 tumors; administered on days 1, 2, 6, and 7, female Balb/c mice
  4T1 tumor growth: ablated 4T1 tumors
4T1 tumors; administered on days 1, 2, 6, and 7, up to 29 days post-implantation
  Body weight: without any loss in body weight
4T1 tumors; cumulative dose of 176 mg/kg per cycle, 2 cycles, immunocompetent syngeneic BALB/c mice
  Tumor size of established 4T1 tumors: tumor regression is observed
4T1 tumors; day 3
  % B-cell in tumor by FACS: infiltrating the tumor
4T1 tumors; days 3, 4, 5, and 8
  IFIT1 levels in plasma (dot-blot): elevated on days 3 to 8
  INF-α levels in plasma (dot-blot): elevated in plasma
4T1 tumors; post-regression, spleen following rechallenge
  B cell phenotype by FACS in draining lymph node and spleen: increase in B cells with a reduction in Bregs
4T1 tumors; reinjected with 4T1 cells twenty-five days post-regression, no additional treatment
  Tumor growth post rechallenge with cancer cells (immune memory): absence of any tumor growth
4T1 tumors; [8]
  IFN gene expression in 4T1 tumors: robust increase in expression
  IRF3 and IRF7 gene expression in 4T1 tumors: increased expression is observed for IRF3 and IRF7
4T1 cells [1]; 30 μM, 24 h, RT-q-PCR, n=3
  mRNA expression of TLRs, IRF7 and IFN genes: robust increase in expression
4T1 cells [1]; iBlot, FIG. 19A-19B
  Secreted (extracellular) INF-α levels: remarkably high
4T1 cells [1]; iBlot, FIGS. 18A-18B
  Intracellular INF-α levels: significantly elevated
4T1 cells [1]; varying concentration, FIG. 16
  Innate anti-viral response (relative mRNA expression INF-α, IRF7, TRIF, TLR3): activation of the innate anti-viral response in a dose-dependent manner
4T1 cells [1]; varying concentrations, FIG. 17
  IRF7 levels: increased levels in 4T1 cells in a dose-dependent manner
[2]
  Estimated AUC versus dose: increased linearly with dose
[3]; 44 mg/kg and 88 mg/kg, single intravenous infusion (30 min)
  Tolerability of the remaining doses: well tolerated without any significant clinical signs
[3]; 44 mg/kg
  ALP (Hepatic), Mean: 107.60 U/L
  ALT (Hepatic), Mean: 30.00 U/L
  AST (Hepatic), Mean: 110.60 U/L
  Creatinine (Renal), Mean: 0.49 mg/dL
  Hemoglobin (Anemia), Mean: 15.84 g/dL
  Neutrophil (Neutropenia), Mean: 0.72 × 10^3 cells/μL
  Platelet (Thrombocytopenia), Mean: 1201.2 × 10^3 cells/μL
[3]; 88 mg/kg
  ALP (Hepatic), Mean: 133.00 U/L
  ALT (Hepatic), Mean: 25.60 U/L
  AST (Hepatic), Mean: 106.00 U/L
  Creatinine (Renal), Mean: 0.49 mg/dL
  Hemoglobin (Anemia), Mean: 14.92 g/dL
  Neutrophil (Neutropenia), Mean: 0.80 × 10^3 cells/μL
  Platelet (Thrombocytopenia), Mean: 1376.2 × 10^3 cells/μL
[3]; 176 mg/kg
  ALP (Hepatic), Mean: 209.5 U/L
  ALT (Hepatic), Mean: 42.50 U/L
  AST (Hepatic), Mean: 141.50 U/L
  Creatinine (Renal), Mean: 0.52 mg/dL
[3]; single intravenous infusion (30 min), both genders
  LTD: 176 mg/kg
4T1 cells [4]
  CMTR2 level in 4T1 cell lysate: dose-dependent upregulation of CMTR2
4T1 cells [5]
  Intracellular integrity (intact concentration by RPHPLC vs platinum by AAS): remains intact intracellularly
CMTR2 [6]
  Binding of CMTR2 by ELISA: confirmed by ELISA
CMTR2 [7]; LC-MS/MS of proteins precipitated from 4T1 lysates
  False discovery rate of CMTR2 as lead putative target: less than 1%
CMTR2 [7]; anti-cholesterol IP and chemical pulldown, 4T1 cell lysate
  Binding to CMTR2 by proteomics: binds to CMTR2
Lewis lung carcinoma; different dose regimens, compared with a MTD dose of oxaliplatin
  Tumor growth: significant tumor growth inhibition
Lewis lung carcinoma; mouse, in vivo
  CD8a levels (immuno-transcripts): no increase was seen in CD8a levels
  Combination effect with PD1 immune checkpoint inhibitor: synergizes with PD1 immune checkpoint inhibitor
  IGKC signal (immuno-transcripts): increase in IGKC signal
